Laboratory results from US5877202A, “Indole derivatives useful to treat estrogen-related neoplasms and disorders” (priority 1996, dated 1999).
Like-named read-outs stand apart in the source and are kept apart here.

Columns and labels:
estrogen receptors = target: T1, estrogen receptors (Homo sapiens, UniProt P03372); assay: Quantification of estrogen receptors in nuclear and whole cell extracts (ER-EIA monoclonal kit), Table 1; format: cell-based, human (MCF-7 human breast cancer cells)
T1 construct: estrogen receptor extracted from MCF-7 human breast tumor cells; endogenous in cells; host or cells: MCF-7 human breast cancer cells (nuclear extract, cytosol or whole cell extract)
T1 sequence (P03372 1-595): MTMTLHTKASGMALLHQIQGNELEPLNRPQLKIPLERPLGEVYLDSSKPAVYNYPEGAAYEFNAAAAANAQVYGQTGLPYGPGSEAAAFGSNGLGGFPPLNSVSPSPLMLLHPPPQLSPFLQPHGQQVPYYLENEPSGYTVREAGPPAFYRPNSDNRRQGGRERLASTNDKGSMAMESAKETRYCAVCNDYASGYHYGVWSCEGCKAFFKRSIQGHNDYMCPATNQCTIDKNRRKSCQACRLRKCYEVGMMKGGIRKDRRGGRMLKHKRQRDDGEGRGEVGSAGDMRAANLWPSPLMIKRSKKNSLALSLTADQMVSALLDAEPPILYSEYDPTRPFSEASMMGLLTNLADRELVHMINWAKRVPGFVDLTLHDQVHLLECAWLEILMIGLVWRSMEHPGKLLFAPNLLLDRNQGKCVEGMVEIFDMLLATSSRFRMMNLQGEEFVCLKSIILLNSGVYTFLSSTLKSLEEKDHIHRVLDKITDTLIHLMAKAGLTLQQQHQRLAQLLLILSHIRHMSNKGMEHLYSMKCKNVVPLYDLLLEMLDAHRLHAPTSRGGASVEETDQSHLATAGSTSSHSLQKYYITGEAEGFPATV
Procedure: (§1) Monolayers of MCF-7 human breast cancer cells are rinsed once with HBSS and scraped off culture dishes into 15 ml conical tubes with 5 ml HBSS. The cells are sedimented by centrifugation at 250×g for five minutes, suspended in 1 ml HBSS and sedimented by centrifugation at 2000 rpm in a tabletop centrifuge for five minutes in a 1.5 ml microfuge tube. Two PCV of a solution of a lysis buffer (25 mM HEPES, pH 7.8, 50 mM KCl, 0.5% Nonidet P 40, 2 mM dithiothreitol, 0.2 mM phenylmethylsulfonyl fluoride, 0.05 mg/ml leupeptin, 0.05 mg/ml aprotinin, 0.0025 mg/ml pepstatin, 0.005 mg/ml antipain) are added and cells are kept on ice for 15 minutes. Lysed cells are centrifuged for 3 minutes at 10,000×g, supernatant decanted, and kept as the cytosol fraction. Pellets are suspended in two PCV of extraction buffer (25 mM HEPES, pH 7.8, 500 mM KCl, 10% glycerol, 2 mM dithiothreitol and the above protease inhibitors), mixed for 20 minutes by inversion at 4 degrees C. and centrifuged at 10,000×g for 20 minutes. The supernatant is decanted and saved as nuclear extract. Both the nuclear extract and the cytosol are dialyzed for two hours against dialysis buffer (25 mM HEPES, pH 7.8, 50 mM KCl, 10% glycerol, 2 mM dithiothreitol and the above protease inhibitors). Nuclear and cytosol fractions are stored frozen at -80 degrees C. until used for mobility shift assays or determination of estrogen receptor content.
Whole cell extracts of tumor cells are prepared by the method of Reese and Katzenellenbogen, Nuc. Acids Res., 19: 6595-6602 (1991), with some modifications. Cell monolayers are rinsed once with HBSS, then scraped into HBSS and sedimented by centrifugation (5 min., 250×g). After resuspending in 1 mL HBSS, the cells are again sedimented at 250×g for 5 min at 4° C. The cell pellet is resuspended in lysis/extract buffer containing 20 mM Tris, pH 7.5, 10% glycerol (v/v), 0.5M sodium chloride and 0.5% NP-40 (v/v) and incubated on ice for 25 minutes, then the supernatants are dialyzed against 25 mM HEPES, pH 7.8, 10% glycerol (v/v), 0.5 mM dithiothreitol and 50 mM potassium chloride for 2 hours at 4° C. Both the lysis/extraction and the dialysis buffers contain protease inhibitors which included 0.5 mM phenylmethylsulfonylfluoride, 0.05 mg/mL leupeptin, 0.05 mg/mL aprotinin, 0.00-25 mg/mL pepstatin, and 0.005 mg/mL antipain. Dialyzed whole cell extracts are stored in aliquots at -80° C. until used.
The protein concentration for nucleus and cytosol fractions are determined with a BIO-RAD kit, according to the manufacturer's instructions.
Estrogen receptor levels in nuclear and whole cell extracts of tumor cells were quanitated using the ER-EIA monoclonal kit manufactured by Abbott Laboratories (Diagnostic Division) according to the kit instructions.
receptors in nuclear extracts.
.dagger.WCE refers to IC50 value for estrogen receptors in whole cel
A slash dividing two numbers indicates the results of two separate

MCF-7 estrogen receptor = target: T2, MCF-7 estrogen receptor (Homo sapiens, UniProt P03372); assay: Competitive binding assay, Relative Binding Affinities on binding of estradiol to MCF-7 estrogen receptor
T2 construct: estrogen receptor extracted from MCF-7 human breast tumor cells; endogenous in cells; host or cells: MCF-7 human breast cancer cells (nuclear extract, cytosol or whole cell extract)
T2 sequence (P03372 1-595): T1 sequence (P03372 1-595)
Procedure: Briefly, RBAs are determined from competitive binding assays with several concentrations of estradiol (E2) with and without test compound. After 16-18 hours of incubation at 4 degrees C., unbound [^3 H] E2 is separated from ER-bound [^3 H] E2. The IC50 is determined and the RBA is calculated as: […]

[1] = target: T3, estrogen receptor binding to an estrogen response element (Homo sapiens, UniProt P03372); assay: Inhibition of estrogen receptor binding to an estrogen response element in DNA mobility shift assays; format: biochemical, human (nuclear extract of MCF-7 human breast cancer cells); settings: read-out: integrated volume of shifted ERE oligo as percentage of control, given as % inhibition
T3 construct: estrogen receptor extracted from MCF-7 human breast tumor cells; endogenous in cells; host or cells: MCF-7 human breast cancer cells (nuclear extract, cytosol or whole cell extract)
T3 sequence (P03372 1-595): T1 sequence (P03372 1-595)
Procedure: as §1
Briefly, to each reaction tube was added 0.01 mg nuclear extract, 2 μg poly dIdC, 50 mM NaCl, 1 mM dithiothreitol and 10 mM Tris, pH 7.5 in a total volume of 0.01 ml and the mixture was kept at room temperature for 10 minutes. A ^32 P-labelled estrogen response element [ERE]

GAPDH mRNA = GAPDH mRNA levels in treated MCF-7 human breast tumor cells (positive control probe); format: cell-based; settings: 30 μM, 24 hr;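 note: Phosphoimager intensity of radioactive mRNA bands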
Procedure: (§2) After treatment with 30 μM drug for 24 hr, total RNA is isolated according to the guanidinium isothiocyanate method using an RNA preparation kit from 5 Prime-3 Prime, Inc., following the manufacturer's instructions. The RNA is separated by formaldehyde gel electrophoresis and transferred to a nylon membrane.

estrogen receptor mRNA = assay: Reduction of estrogen receptor mRNA levels in treated MCF-7 human breast tumor cells; format: cell-based; settings: 30 μM, 24 hr;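 for Estrogen Receptor mRNA band intensity: Phosphoimager intensity of radioactive mRNA bands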
Procedure: as §2

[2] = estrogen receptors in nuclear extracts
[3] = WCE: estrogen receptors in whole cell extracts

`CCCCN(C)C(=O)CCCCCCNC(=O)Cc1c(C)n(CCCc2ccccc2)c2ccc(O)cc12` [MDL 104,261, 7-[[5-Hydroxy-1-(3-phenylpropyl)-2-methyl-1H-indol-3-yl]-acetylamino]-heptanoic acid methyl-butyl-amide] gave an IC50 (estrogen receptors; [2]) of 23.5 µM.

For `CCCCN(C)C(=O)CCCCCCCNC(=O)Cc1cn(Cc2ccccc2)c2ccc(F)cc12` [MDL 104,822, 8-[[5-Fluoro-1-benzyl-1H-indol-3-yl]-acetylamino]-octanoic acid methyl-butyl-amide], the IC50 (estrogen receptors; [2]) was 12 µM.

`CCCCN(C)C(=O)CCCCCCCNC(=O)Cc1c(C)n(C(=O)c2ccccc2)c2ccc(O)cc12` [MDL 105,813, 8-[[5-Hydroxy-1-benzoyl-2-methyl-1H-indol-3-yl]-acetylamino]-octanoic acid methyl-butyl-amide] was tested, and the “inhibition of estradiol binding to MCF-7 ER” value (MCF-7 estrogen receptor; doses of 100 or 200 nM) was “did not significantly inhibit”, the “inhibition of estradiol binding to MCF-7 ER” value (MCF-7 estrogen receptor; typically, at doses of 100 or 200 nM) was “less than 10%” and the inhibition at 2 µM ([1]; 2 μM) was 7.6%. The inhibition at 5 µM ([1]; 5 μM) was 60%, the inhibition at 10 µM ([1]; 10 μM) was 84% and the inhibition at 20 µM ([1]; 20 μM) was 33%. For the same molecule, the inhibition at 30 µM ([1]; 30 μM) was 30%, the “GAPDH mRNA band intensity” value (GAPDH mRNA; replicate 1) was 6,996 and the “GAPDH mRNA band intensity” value (GAPDH mRNA; replicate 2) was 4,830. The ER/GAPDH mean (estrogen receptor mRNA; mean of replicates 1 and 2) was 0.63, the ER/GAPDH (estrogen receptor mRNA; replicate 1) was 0.75 and the “Estrogen Receptor mRNA band intensity” value (estrogen receptor mRNA; replicate 1) was 5,288. The ER/GAPDH (estrogen receptor mRNA; replicate 2) was 0.5, the “Estrogen Receptor mRNA band intensity” value (estrogen receptor mRNA; replicate 2) was 2,418 and the activity at 30 µM (estrogen receptor mRNA; Homo sapiens, MCF7, read-out: ER/GAPDH % Control) was 17%.

In the case of `CCCCN(C)C(=O)CCCCCCCNC(=O)Cc1cn(Cc2ccccc2)c2ccccc12` [MDL 103,948, 8-[[1-Benzyl-1H-indol-3-yl]-acetylamino]-octanoic acid methyl-butyl-amide], the IC50 (estrogen receptors; [3]) is reported as 14 µM.

In the case of `CCCCNC(=O)CCCCCCCNC(=O)Cc1c(-c2ccc(O)cc2)n(Cc2ccccc2)c2ccc(O)cc12` [MDL 104,262, 8-[[5-Hydroxy-1-benzyl-2-[(4-hydroxy)phenyl]-1H-indol-3-yl]-acetylamino]-octanoic acid butyl-amide], the IC50 (estrogen receptors; [2]) is reported as 25 µM.

`CCCCN(C)C(=O)CCCCCCCNC(=O)Cc1c(-c2ccc(OC(C)=O)cc2)n(Cc2ccccc2)c2ccc(OC(C)=O)cc12` [MDL 104,401, 8-[[5-Acetoxy-1-benzyl-2-[(4-acetoxy)-phenyl]-1H-indol-3-yl]-acetylamino]-octanoic acid methyl-butyl-amide] was tested, and the inhibition at 2 µM [1] was 120%, the inhibition at 5 µM [1] was 92% and the inhibition at 10 µM [1] was 59%. The inhibition at 20 µM [1] was 49%, the inhibition at 30 µM [1] was 44% and the IC50 (estrogen receptors; [2]) was 28 µM.

`CCCCN(C)C(=O)CCCCCNC(=O)Cc1c(C)n(C(=O)c2ccc(Cl)cc2)c2ccc(O)cc12` [MDL 105,643, 6-[[5-Hydroxy-1-(4-chlorobenzoyl)-2-methyl-1H-indol-3-yl]-acetylamino]-hexanoic acid methyl-butyl-amide] was tested, and the IC50 (estrogen receptors; [2]) was 19 µM.

For `CCCCc1ccc(C(=O)n2c(C)c(CC(=O)NCCCCCCC(=O)N(CC)CC)c3cc(O)ccc32)cc1` [MDL 103,494, 7-[[5-Hydroxy-1-(4-butylbenzoyl)-2-methyl-1H-indol-3-yl]-acetylamino]-heptanoic acid diethyl-amide], the IC50 (estrogen receptors; [3]) was 28 µM.

`CCCCN(C)C(=O)CCCCCNC(=O)Cc1c(-c2ccc(O)cc2)n(Cc2ccccc2)c2ccc(O)cc12` [MDL 104,982, 6-[[5-Hydroxy-1-benzyl-2-[(4-hydroxy)phenyl]-1H-indol-3-yl]-acetylamino]-hexanoic acid methyl-butyl-amide] gave an IC50 (estrogen receptors; [2]) of 20 µM.

In the case of `CCN(CC)C(=O)CCCCCCCNC(=O)Cc1c(C)n(C(=O)c2ccc(Cl)cc2)c2ccc(O)cc12` [MDL 104,631, 8-[[5-Hydroxy-1-(4-chlorobenzoyl)-2-methyl-1H-indol-3-yl]-acetylamino]-octanoic acid diethyl-amide], the IC50 (estrogen receptors; [2]) is reported as 16 µM.

`CCCCN(C)C(=O)CCCCCCCNC(=O)Cc1c(C)n(C(=O)c2ccc(OC)cc2)c2ccc(O)cc12` [MDL 105,517, 8-[[5-Hydroxy-1-(4-methoxybenzoyl)-2-methyl-1H-indol-3-yl]-acetylamino]-octanoic acid methyl-butyl-amide] gave an IC50 (estrogen receptors; [2]) of 16 µM.

With `Cc1c(CC(=O)NCCCCCCC(=O)N(C)c2ccccc2)c2cc(O)ccc2n1C(=O)c1ccccc1` [MDL 103,005, 7-[[5-Hydroxy-1-benzoyl-2-methyl-1H-indol-3-yl]-acetylamino]-heptanoic acid methyl-phenyl-amide] the IC50 (estrogen receptors; [2]) was 27 µM.

`CCCCN(C)C(=O)CCCCCCCNC(=O)Cc1c(-c2ccc(F)cc2)n(Cc2ccccc2)c2ccc(O)cc12` [MDL 103,970, 8-[[5-Hydroxy-1-benzyl-2-(4-fluorophenyl)-1H-indol-3-yl]-acetylamino]-octanoic acid methyl-butyl-amide] showed an IC50 (estrogen receptors; [2]) of 16 µM.

`CCCCN(C)C(=O)CCCCCCNC(=O)Cc1c(-c2ccc(O)cc2)n(Cc2ccccc2)c2ccc(O)cc12` [MDL 103,623, 7-[[5-Hydroxy-1-benzyl-2-[(4-hydroxy)phenyl]-1H-indol-3-yl]-acetylamino]-heptanoic acid methyl butyl-amide] gave an IC50 (estrogen receptors; [2]) of 16 µM and an IC50 (estrogen receptors; estrogen receptors in nuclear extracts, second of two separate experiments (after the slash)) of 17 µM.
